Assay results published in patent publication US12624398B2, “Use of long non-coding RNAs in medulloblastoma” (THE JOHNS HOPKINS UNIVERSITY, priority 2019, dated 2026).
l = locked nucleic acid (LNA); d = 2'-deoxy (DNA)

Legend:
MED211 cells [1] = test: Apoptosis, Caspase-Glo 3/7 Assay; type: cell-based, human; details: ASO 50 nM, p<0.01
Experimental: (§1) Cell proliferation, apoptosis, and 3D colony formation assays. Cells were plated in 96-well plates at 5×10^3 cells per well in triplicate. After 72 hours of ASO or siRNA transfection, living cells were counted by trypan blue staining. Apoptotic cells were analyzed using a GloMax luminometer (Promega, Fitchburg, WI) with conditions optimized for the Caspase-Glo 3/7 Assay. For the 3D colony formation assay, cells were seeded in 24-well plates at a density of 1×10^2 cells/well and were stained with crystal violet solution approximately 14 days later. Colony number was determined using the EVE cell counter (Nano Entek, Pleasanton, CA), and staining intensity was analyzed using ImageJ software.

D425 Med cells [2] = test: Apoptosis, Caspase-Glo 3/7 Assay; type: cell-based, human; details: ASO 50 nM, p<0.01
Experimental: as §1

lnc-HLX-2-7 [3] = test: qRT-PCR of lnc-HLX-2-7 expression in MB cells; type: cell-based, human
Experimental: (§2) Cell culture. Cell lines were authenticated using single tandem repeat profiling. D425 Med cells were cultured in DMEM/F12 with 10% serum and 1% glutamate/penicillin/streptomycin. MED211 cells were cultured in medium composed of 30% Ham's F12/70% DMEM, 1% antibiotic antimycotic, […] B27 supplement, 5 μg/mL heparin, 20 ng/mL EGF, and 20 ng/mL FGF2. DAOY cells were cultured in DMEM with 10% serum and 1% glutamate/penicillin/streptomycin. All cells were grown in a humidified incubator at 37° C., 5% CO2. For blocking of BET bromodomain protein in D425 Med and MED211 cells, JQ1 (SML1524-5MG, Sigma Aldrich, St. Louis, MO) was added, and the medium was changed every other day.
(§3) Quantitative real-time PCR (qRT-PCR). Total RNA was purified using the Direct-zol RNA Miniprep kit (Zymo Research, Irvine, CA). To obtain RNA from xenografts, tumor tissues were pulverized and then used for purification.
(§4) ASO-lnc-HLX2-7. Antisense oligonucleotides (ASOs) were designed using the Integrated DNA Technologies (IDT) Antisense Design Tool (IDT, Coralville, IA). ASO knockdowns were performed with 50 nM (final concentration) locked nucleic acid (LNA) GapmeRs transfected with Lipofectamine 3000 (Thermo Fisher Scientific, Waltham, MA). All ASOs were modified with phosphorothioate (PS) linkages. The following ASOs were used: ASO targeting lnc-HLX-2-7 (ASO-lnc-HLX-2-7): +T*+G*+A*G*A*G*A*T*T*A*A*T*C*T*A*G*A*T*+T*+G*+C (SEQ ID NO:240) and control ASO targeting luciferase (ASO-Luc): +T*+C*+G*A*A*G*T*A*C*T*C*A*G*C*G*T*A*A*+G*+T*+T (SEQ ID NO:241). The PS linkages are indicated with * and LNA-modified oligonucleotides are indicated with +.
(§5) siRNA-mediated knockdown of HLX, MYC, and MY CN. siRNAs targeting HLX (catalog no. 4427037, ID: s6639) and MYC (catalog no. 4427037, ID: s9129) were purchased from Thermo Fisher Scientific. siRNAs were transfected at 20 nM for 48 h using Lipofectamine RNAiMAX (Thermo Fisher Scientific). The efficiency was determined by qRT-PCR.

HLX = test: qRT-PCR of HLX expression in MB cells; type: cell-based, human; details: ASO 50 nM
Experimental: as §3, §4, §5

MED211 cells [4] = test: Cell proliferation, living cells counted by trypan blue staining; type: cell-based, human
Experimental: as §2, §1

D425 Med cells [5] = test: as above; type: cell-based, human
Experimental: as §2, §1

MYC = test: qRT-PCR of MYC expression in MB cells; type: cell-based, human; details: JQ1 100 or 300 nM, relative to DMSO-treated cells
Experimental: as §2, §3, §5

lnc-HLX-2-7 [6] = test: qPCR of lnc-HLX-2-7 and MYC expression in JQ1-treated mouse xenografts; type: in vivo, NOD-SCID mice; details: JQ1 50 mg/kg intraperitoneal on alternating days for 14 days vs DMSO
Description: as §3
Medulloblastoma xenografts (intracranial). All mouse studies were approved and performed in accordance with the policies and regulations of the Animal Care and Use Committee of Johns Hopkins University. Intracranial MB xenografts were established by injecting D425 Med cells, MED211 cells, D425 Med cells with lnc-HLX-2-7 deleted, and MED211 cells with lnc-HLX-2-7 deleted into the cerebellums of NOD-SCID mice (Jackson Laboratory, Bar Harbor, ME). Cerebellar coordinates were −2 mm from lambda, +1 mm laterally, and 1.5 mm deep. Seven days after injection, mice were administered JQ1 (50 mg/kg) or vehicle alone (DMSO) on alternating days via intraperitoneal injection for 14 days. Tumor growth was evaluated by weekly bioluminescence imaging using an in vivo spectral imaging system (IVIS Lumina II, Xenogen, Alameda, CA).

[7] = system: various types of cancer including MB; details: by inhibiting BRD4-mediated regulation of MYC; previous studies; cited from earlier work

**Q.** With “ASO-lnc-HLX-2-7: LNA GapmeR antisense oligonucleotide with phosphorothioate linkages targeting lnc-HLX-2-7: +T*+G*+A*G*A*G*A*T*T*A*A*T*C*T*A*G*A*T*+T*+G*+C (antisense TGAGAGATTAATCTAGATTGC; sugars from the 5' end l3 d15 l3, all phosphorothioate, methylation of C not given here)” as the molecule, how does the “apoptosis (apoptotic cell numbers)” value (MED211 cells [1]) read?
**A.** The value was “induced apoptosis”.

**Q.** What about the “apoptosis (apoptotic cell numbers)” value (D425 Med cells [2]) of the same molecule?
**A.** Its value is “induced apoptosis”.

**Q.** And the lnc-HLX-2-7 expression (lnc-HLX-2-7 [3]; D425 Med cells, ASO 50 nM, compared to control ASO-luc, p<0.01)?
**A.** Its lnc-HLX-2-7 expression is “significantly decreased”.

**Q.** And the lnc-HLX-2-7 expression (lnc-HLX-2-7 [3]; MED211 cells, ASO 50 nM, compared to control ASO-luc, p<0.01)?
**A.** Its lnc-HLX-2-7 expression is “significantly decreased”.

**Q.** What about the HLX expression (HLX; D425 Med cells) of the same molecule?
**A.** Its HLX expression is “significantly reduced”.

**Q.** And the HLX expression (HLX; MED211 cells)?
**A.** Its HLX expression is “significantly reduced”.

**Q.** And the “MB cell growth (viable cell numbers)” value (MED211 cells [4]; MED211 cells, ASO 50 nM, 72 hours after transfection, p<0.01)?
**A.** Its value is “significantly suppressed”.

**Q.** And the “MB cell growth (viable cell numbers)” value (D425 Med cells [5]; D425 Med cells, ASO 50 nM, 72 hours after transfection, p<0.01)?
**A.** The value was “significantly suppressed”.

**Q.** What does the source list for `Cc1sc2c(c1C)C(c1ccc(Cl)cc1)=N[C@@H](CC(=O)OC(C)(C)C)c1nnc(C)n1-2` [JQ1]?
**A.** MYC expression (MYC; D425 Med cells): downregulated; MYC expression (MYC; MED211 cells): downregulated; lnc-HLX-2-7 expression (lnc-HLX-2-7 [3]; D425 Med cells, JQ1 100 or 300 nM, relative to DMSO-treated cells): downregulated; lnc-HLX-2-7 expression (lnc-HLX-2-7 [3]; MED211 cells, JQ1 100 or 300 nM, relative to DMSO-treated cells): downregulated; lnc-HLX2-7 expression (summary statement) (lnc-HLX-2-7 [3]; no cell line named at the place): reduced; lnc-HLX2-7 expression in vivo (lnc-HLX-2-7 [6]): downregulation; cancer cell proliferation [7]: effectively suppresses; cell growth (viable cell numbers) (MED211 cells [4]; MED211 cells treated with JQ1, relative to DMSO (FIG. 11B), suppressed by lnc-HLX-2-7 overexpression): cell growth inhibition; cell growth (viable cell numbers) (D425 Med cells [5]; D425 Med cells treated with JQ1, relative to DMSO (FIG. 11B), suppressed by lnc-HLX-2-7 overexpression): cell growth inhibition
